In publication PMC4726260, “Combined ligand-observe ^19F and protein-observe ^15N,^1H-HSQC NMR suggests phenylalanine as the key Δ-somatostatin residue recognized by human protein disulfide isomerase” (Scientific Reports, 2016):
Non-standard residues stand in square brackets, D forms with d. Residues, ends and D or L forms follow the SMILES beside them. Phe(4-F) = N[C@@H](Cc1ccc(F)cc1)C(=O)O

What was measured:
[1] = biological target: T1, hPDI b’x (Homo sapiens, UniProt P07237); experiment: Protein-observe 15N,1H-HSQC NMR titration (chemical shift perturbation, Kd); format: binding; conditions: 15N,1H-HSQC; constant 0.25 mM 15N b’x, varying peptide (ratios 1:4 to 2.5:1); 310 K (37 °C); 20 mM sodium phosphate pH 7.0, 50 mM NaCl, 5% D6-DMSO; average of individual residue fits; ± standard error of Levenberg-Marquardt fit; read-out: Dissociation constant (Kd), PROTEIN 15N/1H Tracked
T1 construct: There is also a short 19 amino acid x-linker region between the b’ and a’ domains; made in house; host or cells: E. coli
T1 sequence (P07237 230-368 limits assumed): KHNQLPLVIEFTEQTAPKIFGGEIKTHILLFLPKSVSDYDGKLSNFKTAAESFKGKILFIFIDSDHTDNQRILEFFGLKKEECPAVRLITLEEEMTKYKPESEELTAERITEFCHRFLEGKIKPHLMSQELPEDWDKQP
Description: (§1) NMR titrations were carried out by collecting ^19F NMR spectra (at a constant peptide concentration of 0.15 mM) and ^15N,^1H-HSQC spectra (at a constant protein concentration of 0.25 mM). This provided binding perspectives from both peptide and protein. ^19F NMR data provided precise curve fits of equation (1) with Kd values in agreement with those obtained by ^15N NMR (Table 1). […] Triple fluorinated peptide spectra are shown in Fig. 4 with example Kd graphs plotted using chemical shift change against b’x concentration (see Supplementary Information SV for single fluorinated peptide ^19F spectra).
(§2) All spectra were collected using a 4-channel, 5-amplifier Bruker Avance III 14.1 T (600 MHz ^1H) NMR spectrometer equipped with a 5 mm QCI-F cryoprobe. ^15N,^1H-HSQC spectra were acquired over 45 min on samples containing 0.25 mM b’x and varying peptide concentrations. Each ^19F 1D spectrum was acquired over 60 min on samples of 0.15 mM Δ-som with varying protein concentration. Ratios of the variable:static components in each experiment were 1:4, 1:2, 1:1, 1.5:1, 2:1 and 2.5:1. All samples were run at 310 K in 20 mM sodium phosphate buffer (pH 7.0) containing 50 mM NaCl, 5% D6-DMSO, 5% ^2H2O and 0.05% sodium azide. 1D NMR data were processed using Bruker Topspin software and referenced using the position of trifluoroacetic acid (−76.55 ppm). 2D data were processed using NMRPipe[31] and analysed using the CCPN Analysis software package.
Amide chemical shifts were calculated in Hz as √[(0.6Δ^1H)^2 + (Δ^15N)^2]. Dissociation constants (Kd) for each shifting peak were calculated by plotting the chemical shift perturbation (Hz) against ligand concentration (mM) and fitting the curve to the equation: […]
(§3) where Δobs is the observed chemical shift perturbation, Δmax the maximum chemical shift perturbation and [P] and [L] the protein and ligand concentrations respectively. This equation was used to fit both ^15N and ^19F NMR data using KaleidaGraph 4.0 (Synergy Software). Standard errors from the Levenberg-Marquardt fitting routine were taken as the uncertainties. We determined Kd from ^15N,^1H HSQC NMR data using two approaches: First, by simultaneous fitting all shifts which are averaged to create a single plot, which is considered an accurate method of Kd determination. Second, we tracked and fitted each peak individually to the equation above and averaged all results and errors across all fits. […] This hPDI system creates Kd values with shallow binding curve where errors where average chemical shifts reduce fitting accuracy and individual fitting produces higher resoltuion. Therefore, we used Kd values from the averaged individual fit method within this paper to report smaller errors.

[2] = biological target: T1, hPDI b’x; experiment: Ligand-observe 19F NMR titration (chemical shift change vs b’x concentration, Kd); format: binding; conditions: 310 K
Description: as §1, §2, §3

[3] = biological target: Δ-somatostatin (Homo sapiens) (UniProt P61278); experiment: 19F NMR; conditions: cited from earlier work
[4] = biological target: human protein disulphide isomerase (hPDI) b'x fragment (human) (UniProt P07237); experiment: SEC; gel filtration elution profile of 15N labelled b'x (step of the purification); absorbance at 280 nm
[5] = biological target: F1 Δ-som; experiment: NMR titration; ligand-observed 19F 1D; 0.15 mM fluorinated peptide constant, 15N b'x titrated (ratios 1:4 to 2.5:1); 310 K; 20 mM sodium phosphate pH 7.0, 50 mM NaCl, 5% D6-DMSO, 5% 2H2O, 0.05% sodium azide
[6] = biological target: F1,2,3 Δ-som; experiment: as above
[7] = biological target: F2 Δ-som; experiment: as above
[8] = biological target: F3 Δ-som; experiment: as above
[9] = 19F 1D NMR, constant 0.15 mM singly fluorinated peptide, varying b’x, 20 mM sodium phosphate pH 7.0, 50 mM NaCl, 5% D6-DMSO, ± standard error of fit, read-out: Dissociation constant (Kd), LIGAND 19F Tracked (Single-F)

C[C@H](N)C(=O)NCC(=O)N[C@@H](CO)C(=O)N[C@@H](CCCCN)C(=O)N[C@@H](CC(N)=O)C(=O)N[C@@H](Cc1ccc(F)cc1)C(=O)N[C@@H](Cc1ccc(F)cc1)C(=O)N[C@@H](Cc1c[nH]c2ccccc12)C(=O)N[C@@H](CCCCN)C(=O)N[C@H](C(=O)N[C@@H](Cc1ccc(F)cc1)C(=O)N[C@H](C(=O)N[C@@H](CO)C(=O)N[C@@H](CO)C(=O)O)[C@@H](C)O)[C@@H](C)O [F1,2,3 Δ-som] (H-AGSKN[Phe(4-F)][Phe(4-F)]WKT[Phe(4-F)]TSS-OH)
Kd [1]: 48 ± 35 µM
Kd ([2]; 19F 1D NMR, F1 (Phe6) resonance of triple fluorinated peptide, 0.15 mM peptide, varying b’x, pH 7.0, ± standard error of fit, read-out: Dissociation constant (Kd), LIGAND 19F Tracked (Triple-F), F1 peak): 108 ± 15 µM
Kd ([2]; 19F 1D NMR, F2 (Phe7) resonance of triple fluorinated peptide, 0.15 mM peptide, varying b’x, pH 7.0, ± standard error of fit, read-out: Dissociation constant (Kd), LIGAND 19F Tracked (Triple-F), F2 peak): 33 ± 11 µM
Kd ([2]; 19F 1D NMR, F3 (Phe11) resonance of triple fluorinated peptide, 0.15 mM peptide, varying b’x, pH 7.0, ± standard error of fit, read-out: Dissociation constant (Kd), LIGAND 19F Tracked (Triple-F), F3 peak): 45 ± 14 µM
Kd ([2]; mean of the Kd from each monitored 19F resonance in the triple fluorinated peptide, 0.15 mM peptide, pH 7.0, read-out: Dissociation constant (Kd), LIGAND 19F Tracked (Triple-F), mean Kd): 62 ± 13 µM

C[C@H](N)C(=O)NCC(=O)N[C@@H](CO)C(=O)N[C@@H](CCCCN)C(=O)N[C@@H](CC(N)=O)C(=O)N[C@@H](Cc1ccccc1)C(=O)N[C@@H](Cc1ccc(F)cc1)C(=O)N[C@@H](Cc1c[nH]c2ccccc12)C(=O)N[C@@H](CCCCN)C(=O)N[C@H](C(=O)N[C@@H](Cc1ccccc1)C(=O)N[C@H](C(=O)N[C@@H](CO)C(=O)N[C@@H](CO)C(=O)O)[C@@H](C)O)[C@@H](C)O [F2 Δ-som] (H-AGSKNF[Phe(4-F)]WKTFTSS-OH)
Kd [1]: 51 ± 30 µM
Kd [2, 9]: 27 ± 3 µM

C[C@H](N)C(=O)NCC(=O)N[C@@H](CO)C(=O)N[C@@H](CCCCN)C(=O)N[C@@H](CC(N)=O)C(=O)N[C@@H](Cc1ccccc1)C(=O)N[C@@H](Cc1ccccc1)C(=O)N[C@@H](Cc1c[nH]c2ccccc12)C(=O)N[C@@H](CCCCN)C(=O)N[C@H](C(=O)N[C@@H](Cc1ccc(F)cc1)C(=O)N[C@H](C(=O)N[C@@H](CO)C(=O)N[C@@H](CO)C(=O)O)[C@@H](C)O)[C@@H](C)O [F3 Δ-som] (H-AGSKNFFWKT[Phe(4-F)]TSS-OH)
Kd [1]: 84 ± 53 µM
Kd [2, 9]: 97 ± 21 µM

PDI b'x (from UniProt P07237)
Kd [3]: 23 µM

human protein disulphide isomerase (hPDI) b'x fragment (from UniProt P07237 18-508) (domain or fragment)
stoichiometry N [4]: 2

human protein disulphide isomerase (hPDI) fragment b'x (domain or fragment)
Kd [5]: 109 µM
KD tracked on the F1 (Phe6) 19F resonance [6]: 108 µM
KD tracked on the F2 (Phe7) 19F resonance [6]: 33 µM
KD tracked on the F3 (Phe11) 19F resonance [6]: 45 µM
Kd [6]: 62 µM
Kd [7]: 27 µM
Kd [8]: 97 µM
